Several values for one entry are separate records, joined by “and”; a condition that tells them apart may be missing. Identical values can stand only once. Inconclusive results and toxic doses are left out.
System: L1210 leukemia ip in BDF1 mice, survival T/C
Experiment: NCI In Vivo Anticancer Drug Screen. Data for tumor model L1210 Leukemia (intraperitoneal) in B6D2F1 (BDF1) mice
Settings: endpoint: mean survival time, higher = longer survival
In short: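 Value reflects the ratio of survival in compound-treated mice to survival in vehicle-treated controls, with both groups carrying the same transplanted tumor.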

[1] = dose: 100.0 mg/kg/injection, schedule: Q04DX003 (ip), vehicle: saline with Tween-80
[2] = dose: 200.0 mg/kg/injection, schedule: Q04DX003 (ip), vehicle: saline with Tween-80
[3] = dose: 400.0 mg/kg/injection, schedule: Q04DX003 (ip), vehicle: saline with Tween-80
[4] = dose: 100.0 mg/kg/injection, schedule: Q04DX002 (ip), vehicle: Klucel (hydroxypropylcellulose) (HPC)
[5] = dose: 200.0 mg/kg/injection, schedule: Q04DX002 (ip), vehicle: Klucel (hydroxypropylcellulose) (HPC)
[6] = dose: 100.0 mg/kg/injection, schedule: Q01DX001 (ip), vehicle: other
[7] = dose: 400.0 mg/kg/injection, schedule: Q04DX002 (ip), vehicle: Klucel (hydroxypropylcellulose) (HPC)
[8] = dose: 50.0 mg/kg/injection, schedule: Q01DX001 (ip), vehicle: carboxymethylcellulose (CMC)
[9] = dose: 100.0 mg/kg/injection, schedule: Q01DX001 (ip), vehicle: saline
[10] = dose: 200.0 mg/kg/injection, schedule: Q01DX001 (ip), vehicle: saline
[11] = dose: 300.0 mg/kg/injection, schedule: Q01DX001 (ip), vehicle: saline
[12] = dose: 100.0 mg/kg/injection, schedule: Q01DX001 (ip), vehicle: carboxymethylcellulose (CMC)
[13] = dose: 200.0 mg/kg/injection, schedule: Q01DX001 (ip), vehicle: carboxymethylcellulose (CMC)
[14] = dose: 400.0 mg/kg/injection, schedule: Q01DX001 (ip), vehicle: carboxymethylcellulose (CMC)

CCN(CC)CCCNc1nnc2c(=O)n(C)c(=O)n(C)c2n1
T/C (dose: 75.0 mg/kg/injection, schedule: Q04DX003 (ip), vehicle: saline): 112 % of control
T/C (dose: 150.0 mg/kg/injection, schedule: Q04DX003 (ip), vehicle: saline): 93 % of control
T/C (dose: 300.0 mg/kg/injection, schedule: Q04DX003 (ip), vehicle: saline): 100 % of control

O=C(O)/C(=C\c1[nH]c(=O)[nH]c(=O)c1Br)NC(=O)c1ccccc1
T/C [1]: 104 % of control
T/C [2]: 103 % of control
T/C [3]: 101 % of control

CS(=O)(=O)Oc1ccc(S(=O)(=O)F)cc1Cl
T/C [4]: 102 % of control
T/C [5]: 94 % of control

O=c1[nH]nc(SCc2ccccc2)c(=S)[nH]1
T/C [6]: 119 % of control
T/C (dose: 177.0 mg/kg/injection, schedule: Q01DX001 (ip), vehicle: other): 104 % of control
T/C (dose: 200.0 mg/kg/injection, schedule: Q01DX001 (ip), vehicle: other): 156 % of control
T/C (dose: 200.0 mg/kg/injection, schedule: Q01DX005 (ip), vehicle: other): 92 % of control
T/C (dose: 266.0 mg/kg/injection, schedule: Q01DX001 (ip), vehicle: other): 101 % of control
T/C (dose: 300.0 mg/kg/injection, schedule: Q01DX005 (ip), vehicle: other): 95 % of control

COc1ccc(NC(=O)Nc2cccc(SC)c2)cc1
T/C (dose: 100.0 mg/kg/injection, schedule: Q01DX009 (ip), vehicle: carboxymethylcellulose (CMC)): 94 % of control and 97 % of control
T/C [4]: 93 % of control
T/C (dose: 100.0 mg/kg/injection, schedule: Q04DX002 (ip), vehicle: carboxymethylcellulose (CMC)): 97 % of control and 101 % of control
T/C (dose: 100.0 mg/kg/injection, schedule: Q04DX003 (ip), vehicle: carboxymethylcellulose (CMC)): 94 % of control
T/C (dose: 200.0 mg/kg/injection, schedule: Q01DX009 (ip), vehicle: carboxymethylcellulose (CMC)): 92 % of control and 95 % of control
T/C [5]: 93 % of control
T/C (dose: 200.0 mg/kg/injection, schedule: Q04DX002 (ip), vehicle: carboxymethylcellulose (CMC)): 100 % of control and 91 % of control
T/C (dose: 200.0 mg/kg/injection, schedule: Q04DX003 (ip), vehicle: carboxymethylcellulose (CMC)): 86 % of control
T/C (dose: 400.0 mg/kg/injection, schedule: Q01DX009 (ip), vehicle: carboxymethylcellulose (CMC)): 94 % of control
T/C [7]: 107 % of control
T/C (dose: 400.0 mg/kg/injection, schedule: Q04DX002 (ip), vehicle: carboxymethylcellulose (CMC)): 111 % of control and 91 % of control
T/C (dose: 400.0 mg/kg/injection, schedule: Q04DX003 (ip), vehicle: carboxymethylcellulose (CMC)): 93 % of control

O=[N+]([O-])c1cccc(S(=O)(=O)Oc2ccccc2)c1
T/C (dose: 100.0 mg/kg/injection, schedule: Q01DX009 (ip), vehicle: Klucel (hydroxypropylcellulose) (HPC)): 102 % of control
T/C (dose: 200.0 mg/kg/injection, schedule: Q01DX009 (ip), vehicle: Klucel (hydroxypropylcellulose) (HPC)): 95 % of control
T/C (dose: 400.0 mg/kg/injection, schedule: Q01DX009 (ip), vehicle: Klucel (hydroxypropylcellulose) (HPC)): 101 % of control

CC(C)(C)c1cc(C[P+](c2ccccc2)(c2ccccc2)c2ccccc2)cc(C(C)(C)C)c1O
T/C (dose: 1.56 mg/kg/injection, schedule: Q01DX009 (ip), vehicle: saline): 106 % of control
T/C (dose: 1.56 mg/kg/injection, schedule: Q04DX003 (ip), vehicle: saline): 91 % of control
T/C (dose: 3.12 mg/kg/injection, schedule: Q01DX009 (ip), vehicle: saline): 105 % of control
T/C (dose: 3.12 mg/kg/injection, schedule: Q04DX003 (ip), vehicle: saline): 96 % of control
T/C (dose: 6.25 mg/kg/injection, schedule: Q04DX003 (ip), vehicle: saline): 91 % of control

O=NN(CCCl)C(=O)N[C@@H]1CCCC[C@H]1NC(=O)N(CCCl)N=O
T/C (dose: 25.0 mg/kg/injection, schedule: Q01DX001 (ip), vehicle: carboxymethylcellulose (CMC)): 180 % of control
T/C (dose: 37.5 mg/kg/injection, schedule: Q01DX001 (ip), vehicle: carboxymethylcellulose (CMC)): 165 % of control
T/C [8]: 215 % of control
T/C (dose: 75.0 mg/kg/injection, schedule: Q01DX001 (ip), vehicle: carboxymethylcellulose (CMC)): 260 % of control
T/C [9]: 233 % of control
T/C (dose: 150.0 mg/kg/injection, schedule: Q01DX001 (ip), vehicle: carboxymethylcellulose (CMC)): 308 % of control
T/C [10]: 106 % of control
T/C [11]: 89 % of control

CCNC(=S)NNC(=O)c1ccc(N=NN(C)C)cc1
T/C (dose: 100.0 mg/kg/injection, schedule: Q04DX002 (ip), vehicle: saline with Tween-80): 100 % of control
T/C (dose: 200.0 mg/kg/injection, schedule: Q04DX002 (ip), vehicle: saline with Tween-80): 94 % of control
T/C (dose: 400.0 mg/kg/injection, schedule: Q04DX002 (ip), vehicle: saline with Tween-80): 100 % of control

Brc1cccc2c(I)cccc12
T/C [12]: 95 % of control
T/C [13]: 98 % of control
T/C [14]: 92 % of control

O=C(O)/C=C/c1cc(O)c(O)c(O)c1
T/C (dose: 25.0 mg/kg/injection, schedule: Q01DX001 (ip), vehicle: other): 100 % of control
T/C (dose: 50.0 mg/kg/injection, schedule: Q01DX001 (ip), vehicle: other): 99 % of control
T/C [6]: 94 % of control

CC(C)N(C(=O)CSc1c(Cl)c(Cl)c(Cl)c(Cl)c1Cl)C(C)C
T/C (dose: 100.0 mg/kg/injection, schedule: Q04DX002 (ip), vehicle: other): 107 % of control and 113 % of control
T/C (dose: 100.0 mg/kg/injection, schedule: Q04DX003 (ip), vehicle: other): 89 % of control and 91 % of control
T/C (dose: 200.0 mg/kg/injection, schedule: Q04DX002 (ip), vehicle: other): 95 % of control and 106 % of control
T/C (dose: 200.0 mg/kg/injection, schedule: Q04DX003 (ip), vehicle: other): 96 % of control and 91 % of control
T/C (dose: 400.0 mg/kg/injection, schedule: Q04DX003 (ip), vehicle: other): 94 % of control

CCN(CC)CCN(C(=O)C(O)(c1ccccc1)c1ccccc1)C(C)C
T/C (dose: 100.0 mg/kg/injection, schedule: Q04DX002 (ip), vehicle: saline): 101 % of control
T/C (dose: 200.0 mg/kg/injection, schedule: Q04DX002 (ip), vehicle: saline): 108 % of control

CC(=O)Cc1c[nH]c2ccccc12
T/C [8]: 103 % of control
T/C [12]: 97 % of control
T/C [4]: 97 % of control
T/C [13]: 106 % of control
T/C [5]: 101 % of control
T/C [14]: 103 % of control
T/C [7]: 111 % of control

Nc1ccc(SCC(=O)O)cc1
T/C (dose: 75.0 mg/kg/injection, schedule: Q01DX001 (ip), vehicle: saline): 94 % of control
T/C (dose: 150.0 mg/kg/injection, schedule: Q01DX001 (ip), vehicle: saline): 100 % of control
T/C [11]: 92 % of control

CCN(C(=O)C(F)(F)F)C1(c2ccc(Cl)cc2)CCCCC1SSSC1CCCCC1(c1ccc(Cl)cc1)N(CC)C(=O)C(F)(F)F (centres undefined)
T/C (dose: 100.0 mg/kg/injection, schedule: Q01DX009 (ip), vehicle: saline with Tween-80): 106 % of control
T/C [1]: 87 % of control
T/C (dose: 200.0 mg/kg/injection, schedule: Q01DX009 (ip), vehicle: saline with Tween-80): 98 % of control
T/C [2]: 89 % of control
T/C (dose: 400.0 mg/kg/injection, schedule: Q01DX009 (ip), vehicle: saline with Tween-80): 108 % of control
T/C [3]: 89 % of control

C=CCCCCCCCCC(=O)OC
T/C [9]: 100 % of control
T/C [10]: 96 % of control
T/C (dose: 400.0 mg/kg/injection, schedule: Q01DX001 (ip), vehicle: saline): 100 % of control

Cc1ccccc1N=Nc1ccc(N(C)C)cc1
T/C [8]: 93 % of control
T/C [12]: 107 % of control
T/C (dose: 100.0 mg/kg/injection, schedule: Q04DX003 (ip), vehicle: Klucel (hydroxypropylcellulose) (HPC)): 95 % of control
T/C [13]: 86 % of control
T/C (dose: 200.0 mg/kg/injection, schedule: Q04DX003 (ip), vehicle: Klucel (hydroxypropylcellulose) (HPC)): 95 % of control
T/C [14]: 98 % of control
T/C (dose: 400.0 mg/kg/injection, schedule: Q04DX003 (ip), vehicle: Klucel (hydroxypropylcellulose) (HPC)): 91 % of control
